Values joined by “and” are separate entries in the source; they are usually repeats but may differ in a detail not shown here. Equal entries are not always repeated. Toxic doses and inconclusive results are not listed. Rule for the calls: active = survival T/C of 150% or more; inactive = T/C below 125% in these data.
Test system: CD2F1 mice, L1210 leukemia ip, survival T/C
Assay: NCI In Vivo Anticancer Drug Screen. Data for tumor model L1210 Leukemia (intraperitoneal) in CD2F1 (CDF1) mice
Details: endpoint: mean survival time, higher = longer survival
Method in brief: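 Antitumor effect is scored in animals hosting a serially transplanted tumor. Values compare compound-dosed animals against vehicle-only controls as a simple quotient.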

[1] = dose: 100.0 mg/kg/injection, schedule: Q04DX003 (ip), vehicle: saline with Tween-80
[2] = dose: 200.0 mg/kg/injection, schedule: Q04DX003 (ip), vehicle: saline with Tween-80
[3] = dose: 400.0 mg/kg/injection, schedule: Q04DX003 (ip), vehicle: saline with Tween-80
[4] = dose: 100.0 mg/kg/injection, schedule: Q01DX009 (ip), vehicle: saline
[5] = dose: 200.0 mg/kg/injection, schedule: Q01DX009 (ip), vehicle: saline
[6] = dose: 100.0 mg/kg/injection, schedule: Q01DX009 (ip), vehicle: saline with Tween-80
[7] = dose: 200.0 mg/kg/injection, schedule: Q01DX009 (ip), vehicle: saline with Tween-80
[8] = dose: 50.0 mg/kg/injection, schedule: Q01DX009 (ip), vehicle: saline
[9] = dose: 100.0 mg/kg/injection, schedule: Q01DX001 (ip), vehicle: saline with Tween-80
[10] = dose: 200.0 mg/kg/injection, schedule: Q01DX001 (ip), vehicle: saline with Tween-80
[11] = dose: 100.0 mg/kg/injection, schedule: Q04DX002 (ip), vehicle: saline with Tween-80
[12] = dose: 400.0 mg/kg/injection, schedule: Q01DX009 (ip), vehicle: saline with Tween-80
[13] = dose: 75.0 mg/kg/injection, schedule: Q01DX001 (ip), vehicle: saline
[14] = dose: 150.0 mg/kg/injection, schedule: Q01DX001 (ip), vehicle: saline
[15] = dose: 100.0 mg/kg/injection, schedule: Q04DX003 (ip), vehicle: Klucel (hydroxypropylcellulose) (HPC)
[16] = dose: 200.0 mg/kg/injection, schedule: Q04DX002 (ip), vehicle: saline with Tween-80
[17] = dose: 400.0 mg/kg/injection, schedule: Q04DX002 (ip), vehicle: saline with Tween-80

Measured: T/C

CC1(C)N=C(N)N=C(N)N1c1cccc(CCCCc2ccc(S(=O)(=O)F)cc2Cl)c1
inactive: dose: 12.5 mg/kg/injection, schedule: Q01DX009 (ip), vehicle: saline sonified 87 % of control | dose: 12.5 mg/kg/injection, schedule: Q04DX003 (ip), vehicle: saline sonified 96 % of control | dose: 25.0 mg/kg/injection, schedule: Q01DX009 (ip), vehicle: saline sonified 89 % of control | dose: 25.0 mg/kg/injection, schedule: Q04DX003 (ip), vehicle: saline sonified 96 % of control | dose: 50.0 mg/kg/injection, schedule: Q04DX003 (ip), vehicle: saline sonified 92 % of control

COc1ccc(C(=O)CC(C#N)c2ccc(OC)c(OC)c2)cc1OC (stereo not given)
inactive: [1] 98 % of control | [2] 101 % of control | [3] 98 % of control

OCCCNCc1ccccc1
inactive: [4] 97 % of control | [5] 96 % of control | dose: 400.0 mg/kg/injection, schedule: Q01DX009 (ip), vehicle: saline 100 % of control

COC(=O)C1CC[N-]CC1.COC(=O)C1CC[N-]CC1.[Cl][Pt+2][Cl]
inactive: [6] 115 % of control | [7] 114 % of control

O=C1CCCN1
inactive: [8] 91 % of control | [4] 98 % of control | [5] 89 % of control

CC(=O)Oc1c(Cl)cc(Cl)c(Cl)c1[N+](=O)[O-]
inactive: [9] 93 % of control | [10] 93 % of control

CCOC(=O)CC/C=C/Cc1c(OC)c(C)c2c(c1OC(=O)NCc1ccc(N(CC)CC)cc1)C(=O)OC2
inactive: [11] 112 % of control

O=C(O)C(Br)C(Br)c1ccccc1 (stereo not given)
inactive: [6] 92 % of control | [7] 93 % of control | [12] 93 % of control

O=c1[nH]nc(-c2cccc3ccccc23)c2ccccc12
inactive: [1] 97 % of control | [2] 94 % of control | [3] 97 % of control

O=C(/C=C/c1ccc2c(c1)OCO2)c1ccc(Cl)cc1
inactive: [1] 94 % of control | [2] 89 % of control

CC(=O)Oc1cc(C(C)(C)C)c(OC(C)=O)c(N=[N+]=[N-])c1C(C)(C)C
inactive: [1] 96 % of control | [2] 101 % of control | [3] 96 % of control

COc1ccc(C(=O)/C=N/O)cc1
inactive: dose: 25.0 mg/kg/injection, schedule: Q04DX003 (ip), vehicle: saline with Tween-80 100 % of control | dose: 50.0 mg/kg/injection, schedule: Q04DX003 (ip), vehicle: saline with Tween-80 100 % of control | [1] 95 % of control and 98 % of control

CC1OC(=O)c2ccccc2S1=O (stereo not given)
inactive: dose: 100.0 mg/kg/injection, schedule: Q01DX009 (ip), vehicle: saline sonified 98 % of control | [1] 98 % of control | dose: 200.0 mg/kg/injection, schedule: Q01DX009 (ip), vehicle: saline sonified 97 % of control | [2] 100 % of control | dose: 400.0 mg/kg/injection, schedule: Q01DX009 (ip), vehicle: saline sonified 97 % of control | [3] 104 % of control

COc1cc(Cl)c(CC(=O)Cl)cc1OC
inactive: [13] 105 % of control | [14] 106 % of control | dose: 300.0 mg/kg/injection, schedule: Q01DX001 (ip), vehicle: saline 95 % of control

Cc1cc(SCc2ccccc2)cc(C)[o+]1
inactive: [13] 106 % of control | [14] 93 % of control

COc1ccc(/C=N\NC(=O)c2ccccc2)cc1
inactive: [6] 95 % of control | [7] 95 % of control | [12] 86 % of control

CN(C(=O)C(=O)c1ccccc1NC(=O)c1ccc(Cl)cc1)c1ccccc1
inactive: dose: 25.0 mg/kg/injection, schedule: Q04DX003 (ip), vehicle: Klucel (hydroxypropylcellulose) (HPC) 102 % of control | dose: 50.0 mg/kg/injection, schedule: Q04DX003 (ip), vehicle: Klucel (hydroxypropylcellulose) (HPC) 106 % of control | [15] 104 % of control

CCN(CC)P(=O)(NCCCl)OC (stereo not given)
inactive: dose: 100.0 mg/kg/injection, schedule: Q01DX009 (ip), vehicle: DMSO 103 % of control

N#CCCN=C1C=CC(=C(c2ccc(NCCC#N)cc2)c2ccccc2Cl)C=C1
inactive: [16] 93 % of control | [17] 103 % of control

Nc1cc(=O)[nH]c(O)c1C(=O)O
inactive: dose: 50.0 mg/kg/injection, schedule: Q01DX009 (ip), vehicle: saline with Tween-80 104 % of control | [6] 96 % of control

Nc1ccc(CCCCc2ccc(Cl)c(S(=O)(=O)F)c2)c(Cl)c1
inactive: [6] 95 % of control | [1] 95 % of control | [7] 92 % of control | [2] 101 % of control | [12] 94 % of control | [3] 94 % of control

COC(=O)/C=C/c1ccc([N+](=O)[O-])cc1
inactive: [6] 100 % of control | [7] 100 % of control | [12] 105 % of control

CC1(C)CC(=O)C=C(N)C1
inactive: [6] 100 % of control | [7] 97 % of control | [12] 108 % of control

CCOC(=O)C(=O)NCCc1ccc2c(c1)OCO2
inactive: [9] 97 % of control | [10] 95 % of control | dose: 400.0 mg/kg/injection, schedule: Q01DX001 (ip), vehicle: saline with Tween-80 100 % of control

CC(=O)OCC(O)C(O)C(O)C(O)CO (stereo not given)
inactive: [6] 109 % of control | [7] 94 % of control | [12] 96 % of control

CC[N+](C)(CC)CCNC(=O)C(c1ccccc1)c1ccccc1
inactive: dose: 25.0 mg/kg/injection, schedule: Q01DX009 (ip), vehicle: saline 104 % of control | [8] 102 % of control | [4] 95 % of control

O=C(/C=C/c1ccccc1Cl)c1ccccc1[N+](=O)[O-]
inactive: [6] 89 % of control | [7] 94 % of control | [12] 95 % of control

C(=N\Nc1nc2ccccc2s1)/c1ccc(/C=N/Nc2nc3ccccc3s2)cc1
inactive: [15] 92 % of control | dose: 200.0 mg/kg/injection, schedule: Q04DX003 (ip), vehicle: Klucel (hydroxypropylcellulose) (HPC) 92 % of control | dose: 400.0 mg/kg/injection, schedule: Q04DX003 (ip), vehicle: Klucel (hydroxypropylcellulose) (HPC) 94 % of control

CCC(C)C(C)OC(=O)c1cc([N+](=O)[O-])cc([N+](=O)[O-])c1 (stereo not given)
inactive: [6] 105 % of control | [1] 92 % of control | [7] 104 % of control | [2] 97 % of control | [12] 90 % of control | [3] 103 % of control

Cc1cc(N(C)C)c(C(C)C)cc1O (tested in a mixture with another compound)
inactive: dose: 32.0 micrograms/kg/injection, schedule: Q04DX003 (ip), vehicle: saline 104 % of control | dose: 63.0 micrograms/kg/injection, schedule: Q01DX001 (ip), vehicle: saline 112 % of control | dose: 63.0 micrograms/kg/injection, schedule: Q04DX003 (ip), vehicle: saline 98 % of control | dose: 125.0 micrograms/kg/injection, schedule: Q01DX001 (ip), vehicle: saline 112 % of control | dose: 125.0 micrograms/kg/injection, schedule: Q04DX003 (ip), vehicle: saline 101 % of control

O=C1OC2CC1CCC2Br (stereo not given)
inactive: [1] 94 % of control | [2] 94 % of control | [3] 97 % of control

O=C(c1ccccc1)C1CC2CCC1CC2 (stereo not given)
inactive: dose: 50.0 mg/kg/injection, schedule: Q04DX002 (ip), vehicle: saline with Tween-80 96 % of control | [11] 86 % of control | [16] 93 % of control | [17] 89 % of control

— PubChem BioAssay AID256 (DTP/NCI, 2004)
